Laboratory results taken from paper PMC9127186, “Molecular Basis Underlying Hepatobiliary and Renal Excretion of Phenolic Acids of Salvia miltiorrhiza Roots (Danshen)” (Frontiers in Pharmacology, 2022).

Tests used:
human OATP1B1 = target: T1, human OATP1B1 (Homo sapiens, UniProt Q9Y6L6); parameters: method as in Cao et al. (2019); conditions: ref Cao et al. (2019); cited from earlier work
T1 sequence (Q9Y6L6 1-691): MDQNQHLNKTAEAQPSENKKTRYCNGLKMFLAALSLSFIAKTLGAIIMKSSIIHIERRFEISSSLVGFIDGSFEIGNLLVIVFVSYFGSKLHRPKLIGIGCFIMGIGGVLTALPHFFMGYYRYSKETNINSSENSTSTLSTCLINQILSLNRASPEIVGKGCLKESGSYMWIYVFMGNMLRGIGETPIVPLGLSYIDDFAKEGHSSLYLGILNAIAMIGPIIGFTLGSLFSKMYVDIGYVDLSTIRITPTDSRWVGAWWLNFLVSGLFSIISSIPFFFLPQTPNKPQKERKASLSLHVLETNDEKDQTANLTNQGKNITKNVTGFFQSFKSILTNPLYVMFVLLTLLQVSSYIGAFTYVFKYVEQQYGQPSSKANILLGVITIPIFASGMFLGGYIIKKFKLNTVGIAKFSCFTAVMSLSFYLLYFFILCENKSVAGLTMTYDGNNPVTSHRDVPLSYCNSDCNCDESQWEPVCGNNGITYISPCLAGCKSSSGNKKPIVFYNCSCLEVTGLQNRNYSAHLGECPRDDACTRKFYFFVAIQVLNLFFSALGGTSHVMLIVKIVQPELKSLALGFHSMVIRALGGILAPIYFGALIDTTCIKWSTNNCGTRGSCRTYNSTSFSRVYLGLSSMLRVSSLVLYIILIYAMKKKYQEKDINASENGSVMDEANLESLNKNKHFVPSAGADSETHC

rat Oatp1a1 = target: T2, rat Oatp1a1 (Rattus norvegicus, UniProt P46720); conditions: 10 min, 100 μM
T2 sequence (P46720 1-670): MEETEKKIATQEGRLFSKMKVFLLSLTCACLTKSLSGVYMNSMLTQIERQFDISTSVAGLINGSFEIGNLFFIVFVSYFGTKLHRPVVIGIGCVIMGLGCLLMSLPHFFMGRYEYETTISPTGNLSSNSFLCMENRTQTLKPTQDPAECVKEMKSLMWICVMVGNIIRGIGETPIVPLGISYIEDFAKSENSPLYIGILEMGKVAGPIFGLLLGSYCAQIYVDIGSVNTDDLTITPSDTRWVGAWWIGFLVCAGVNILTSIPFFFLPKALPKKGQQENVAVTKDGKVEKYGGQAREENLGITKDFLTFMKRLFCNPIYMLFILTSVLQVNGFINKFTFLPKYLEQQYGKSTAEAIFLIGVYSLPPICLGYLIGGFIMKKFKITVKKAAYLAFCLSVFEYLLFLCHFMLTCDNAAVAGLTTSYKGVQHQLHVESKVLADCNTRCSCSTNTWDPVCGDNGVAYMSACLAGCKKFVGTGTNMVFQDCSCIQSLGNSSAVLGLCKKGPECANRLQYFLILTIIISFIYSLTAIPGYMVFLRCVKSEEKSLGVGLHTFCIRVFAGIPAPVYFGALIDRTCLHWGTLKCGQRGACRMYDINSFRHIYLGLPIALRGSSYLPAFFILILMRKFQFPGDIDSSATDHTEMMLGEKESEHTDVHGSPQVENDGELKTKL

rat Ntcp = target: T3, rat Ntcp (Rattus norvegicus, UniProt P26435); conditions: 10 min, 100 μM
T3 sequence (P26435 1-362): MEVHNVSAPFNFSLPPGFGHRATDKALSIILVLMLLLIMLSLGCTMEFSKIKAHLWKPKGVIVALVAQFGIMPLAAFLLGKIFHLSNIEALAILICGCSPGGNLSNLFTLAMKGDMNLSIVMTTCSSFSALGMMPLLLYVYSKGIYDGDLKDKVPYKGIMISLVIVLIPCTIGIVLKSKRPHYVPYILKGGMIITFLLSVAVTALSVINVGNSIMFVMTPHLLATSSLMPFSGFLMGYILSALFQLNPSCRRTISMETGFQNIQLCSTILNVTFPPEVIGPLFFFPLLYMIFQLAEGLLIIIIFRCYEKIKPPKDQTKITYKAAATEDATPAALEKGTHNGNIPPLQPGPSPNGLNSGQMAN

human OAT1 = target: T4, human OAT1 (Homo sapiens, UniProt Q4U2R8); parameters: method as in Kang et al. (2021); conditions: ref Kang et al. (2021); cited from earlier work
T4 sequence (Q4U2R8 1-563): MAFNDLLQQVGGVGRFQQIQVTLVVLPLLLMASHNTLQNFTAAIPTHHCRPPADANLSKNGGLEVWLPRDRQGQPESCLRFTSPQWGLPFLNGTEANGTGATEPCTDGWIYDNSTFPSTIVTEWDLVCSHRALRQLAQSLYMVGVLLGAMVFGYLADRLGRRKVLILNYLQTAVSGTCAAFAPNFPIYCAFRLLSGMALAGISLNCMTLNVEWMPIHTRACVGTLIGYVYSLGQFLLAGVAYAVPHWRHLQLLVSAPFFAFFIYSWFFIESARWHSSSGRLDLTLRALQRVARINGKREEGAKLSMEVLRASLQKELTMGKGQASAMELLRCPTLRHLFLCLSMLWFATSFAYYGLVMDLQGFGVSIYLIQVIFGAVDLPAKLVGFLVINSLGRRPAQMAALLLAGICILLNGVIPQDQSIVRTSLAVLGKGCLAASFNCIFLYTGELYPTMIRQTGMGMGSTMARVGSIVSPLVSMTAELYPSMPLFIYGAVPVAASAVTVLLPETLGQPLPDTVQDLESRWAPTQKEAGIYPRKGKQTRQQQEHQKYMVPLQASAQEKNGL

human OCT3 = target: T5, human OCT3 (Homo sapiens, UniProt O75751)
T5 sequence (O75751 1-556): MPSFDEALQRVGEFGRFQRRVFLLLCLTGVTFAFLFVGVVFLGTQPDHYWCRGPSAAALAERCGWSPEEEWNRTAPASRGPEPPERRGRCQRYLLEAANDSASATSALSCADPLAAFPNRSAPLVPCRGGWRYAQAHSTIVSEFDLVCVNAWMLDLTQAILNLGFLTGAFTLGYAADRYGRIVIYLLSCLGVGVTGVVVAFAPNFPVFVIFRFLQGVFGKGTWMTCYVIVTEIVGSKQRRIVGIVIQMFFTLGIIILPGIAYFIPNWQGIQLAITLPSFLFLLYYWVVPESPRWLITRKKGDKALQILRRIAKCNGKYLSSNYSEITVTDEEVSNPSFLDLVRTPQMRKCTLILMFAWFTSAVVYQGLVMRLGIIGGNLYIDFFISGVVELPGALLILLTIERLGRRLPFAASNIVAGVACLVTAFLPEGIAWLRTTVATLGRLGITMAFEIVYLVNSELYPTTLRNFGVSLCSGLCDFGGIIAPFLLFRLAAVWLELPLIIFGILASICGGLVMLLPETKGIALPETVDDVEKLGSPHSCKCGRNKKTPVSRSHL

Compound | substrate of human OATP1B1 (human OATP1B1) | TransportTC/TransportMC ratio (net transport ratio) (rat Oatp1a1) | TransportTC/TransportMC ratio (net transport ratio) (rat Ntcp) | substrate of human OAT1 (human OAT1) | TransportTC/TransportMC ratio (net transport ratio) (human OCT3)
salvianolic acid B | substrate |  |  |  | 
O=C(/C=C/c1ccc(O)c(O)c1)O[C@H](Cc1ccc(O)c(O)c1)C(=O)O [Rosmarinic acid, rosmarinic acid] |  | 1.45 ± 0.57 | 1.68 ± 0.25 | substrate | 
O=C(/C=C/c1ccc(O)c(O)c1/C=C/c1ccc(O)c(O)c1)O[C@H](Cc1ccc(O)c(O)c1)C(=O)O [Salvianolic acid A, salvianolic acid A] |  | 2.24 ± 0.67 | 0.84 ± 0.13 |  | 1.31 ± 0.09
